Earlier results in article PMC7395068, “The evolution of strategies to minimise the risk of human drug-induced liver injury (DILI) in drug discovery and development” (Archives of Toxicology, 2020).
Structures can show the parent of a compound that is named as a salt. Where two headings read alike, the source gives them in different places.

Legend:
human hepatocytes = conditions: cited from earlier work; for Structural based (HCI), In vitro Assay: human hepatocyte imaging
[1] = cited from earlier work
[2] = tested on: THLE or HepG2 cells, isolated mitochondria, BSEP; conditions: In vitro Assay; ref Aleo 2019; cited from earlier work
[3] = ref Chen 2016; cited from earlier work
[4] = tested on: primary human hepatocytes, NIH3T3 fibroblasts, BSEP, CYP3A4; conditions: In vitro Assay; ref Schadt 2015; cited from earlier work

## Cl[C@H]1[C@H](Cl)[C@@H](Cl)[C@@H](Cl)[C@H](Cl)[C@H]1Cl [1,2,3,4,5,6-hexachlorocyclohexane]
Human hepatocytes
  Structural based (HCI): -VE
[1]; in vivo
  In vivo DILI: +VE

## CC(=O)Nc1nnc(S(N)(=O)=O)s1 [acetazolamide]
Human hepatocytes; In vitro Assay, ref Xu 2008
  Structural based (HCI): -VE

## CC(=O)c1ccc(S(=O)(=O)NC(=O)NC2CCCCC2)cc1 [acetohexamide]
Human hepatocytes; In vitro Assay, ref Xu 2008
  Structural based (HCI): +VE
[1]; ref Xu 2008
  In vivo DILI: +VE

## N[C@H](C(=O)O)[C@@H]1CC(Cl)=NO1 [acivicin]
Human hepatocytes; In vitro Assay, ref Xu 2008
  Structural based (HCI): -VE
[1]; ref Xu 2008
  In vivo DILI: -VE

## Nc1ncnc2c1ncn2[C@@H]1O[C@H](CO)[C@@H](O)[C@H]1O [adenosine]
Human hepatocytes; In vitro Assay, ref Xu 2008
  Structural based (HCI): -VE

## O.O=C1NC(=O)C(=O)C(=O)N1 [alloxan hydrate]
Human hepatocytes; In vitro Assay, ref Xu 2008
  Structural based (HCI): -VE
[1]; ref O'Brien 2006
  In vivo DILI: +VE
[1]; ref Xu 2008
  In vivo DILI: -VE

## Nc1ccc(C(=O)O)cc1 [aminobenzoate potassium]
Human hepatocytes; In vitro Assay, ref Xu 2008
  Structural based (HCI): -VE

## COc1cc(NS(C)(=O)=O)ccc1Nc1c2ccccc2nc2ccccc12 [amsacrine]
Human hepatocytes; In vitro Assay, ref Xu 2008
  Structural based (HCI): +VE

## C=C1[C@@H]2CC[C@H]3[C@]4(C)C[C@H](O[C@@H]5O[C@H](CO)[C@@H](OS(=O)(=O)O)[C@H](OS(=O)(=O)O)[C@H]5OC(=O)CC(C)C)C[C@@H](C(=O)O)[C@H]4CC[C@]3(C2)[C@H]1O [atractyloside]
Human hepatocytes; In vitro Assay, ref Xu 2008
  Structural based (HCI): +VE
[1]; ref Xu 2008
  In vivo DILI: +VE

## C[C@H]1C[C@H]2[C@@H]3CCC4=CC(=O)C=C[C@]4(C)[C@@]3(Cl)[C@@H](O)C[C@]2(C)[C@@]1(O)C(=O)CO [beclomethasone]
Human hepatocytes
  Structural based (HCI): -VE
[1]; in vivo
  In vivo DILI: -VE

## CCOC(=O)[C@H](CCc1ccccc1)N[C@H]1CCc2ccccc2N(CC(=O)O)C1=O [benazepril]
Human hepatocytes; In vitro Assay, ref Xu 2008
  Structural based (HCI): -VE

## C[C@H]1C[C@H]2[C@@H]3CCC4=CC(=O)C=C[C@]4(C)[C@@]3(F)[C@@H](O)C[C@]2(C)[C@@]1(O)C(=O)CO [betamethasone]
Human hepatocytes; In vitro Assay, ref Xu 2008
  Structural based (HCI): -VE
[1]; ref Xu 2008
  In vivo DILI: -VE

## CC(NC(C)(C)C)C(=O)c1cccc(Cl)c1 (centres unmarked) [bupropion]
Human hepatocytes; In vitro Assay, ref Xu 2008
  Structural based (HCI): -VE

## CS(=O)(=O)OCCCCOS(C)(=O)=O [busulphan]
Human hepatocytes; In vitro Assay, ref Xu 2008
  Structural based (HCI): +VE
[1]; ref Xu 2008
  In vivo DILI: +VE

## [Cl][Cd][Cl] [cadmium chloride]
Human hepatocytes; In vitro Assay, ref Xu 2008
  Structural based (HCI): +VE
[1]; ref Xu 2008
  In vivo DILI: +VE

## CC(C)(CO)[C@@H](O)C(=O)NCCC(=O)O [calcium pantothenate]
Human hepatocytes; In vitro Assay, ref Xu 2008
  Structural based (HCI): -VE

## COC(=O)Nc1nc2ccccc2[nH]1 [carbendazim]
Human hepatocytes
  Structural based (HCI): -VE
[1]; in vivo
  In vivo DILI: +VE

## CC1(C)[C@@H](OC(=O)CCC(=O)[O-])CC[C@]2(C)[C@H]3C(=O)C=C4[C@@H]5C[C@@](C)(C(=O)[O-])CC[C@]5(C)CC[C@@]4(C)[C@]3(C)CC[C@@H]12.[Na+].[Na+] [carbenoxolone disodium]
Human hepatocytes
  Structural based (HCI): -VE
[1]; in vivo
  In vivo DILI: -VE

## OCCN1CCN(CC/C=C2/c3ccccc3Sc3ccc(C(F)(F)F)cc32)CC1 [cis(z)-flupentixol]
Human hepatocytes
  Structural based (HCI): -VE
[1]; in vivo
  In vivo DILI: -VE

## NC1CCN(c2c(F)cc3c(=O)c(C(=O)O)cn(C4CC4)c3c2Cl)C1 (centres unmarked) [clinafloxacin]
Human hepatocytes; In vitro Assay, ref Xu 2008
  Structural based (HCI): -VE
[1]; ref Xu 2008
  In vivo DILI: -VE

## N[C@H]1C(O)O[C@H](CO)[C@H](O)[C@@H]1O (stereo partly drawn) [d-galactosamine]
Human hepatocytes
  Structural based (HCI): -VE
[1]; in vivo
  In vivo DILI: +VE

## C#C[C@]1(O)CC[C@H]2[C@@H]3CCC4=Cc5oncc5C[C@]4(C)[C@H]3CC[C@@]21C [danazol]
Human hepatocytes
  Structural based (HCI): -VE

## O=c1[nH]cnc2c1ncn2[C@H]1CC[C@@H](CO)O1 [didanosine]
Human hepatocytes; In vitro Assay, ref Xu 2008
  Structural based (HCI): -VE

## CC(C)N(CCC(C(N)=O)(c1ccccc1)c1ccccn1)C(C)C (centres unmarked) [disopyramide phosphate]
Human hepatocytes; In vitro Assay, ref Xu 2008
  Structural based (HCI): -VE
[1]; ref Xu 2008
  In vivo DILI: +VE

## CCO.C[C@H]1c2cccc(O)c2C(O)=C2C(=O)[C@]3(O)C(O)=C(C(N)=O)C(=O)[C@@H](N(C)C)[C@@H]3[C@@H](O)[C@@H]21.C[C@H]1c2cccc(O)c2C(O)=C2C(=O)[C@]3(O)C(O)=C(C(N)=O)C(=O)[C@@H](N(C)C)[C@@H]3[C@@H](O)[C@@H]21.Cl.Cl.O [doxycycline hyclate]
Human hepatocytes
  Structural based (HCI): +VE
[1]; in vivo
  In vivo DILI: +VE

## CC[N+](C)(C)c1cccc(O)c1 [edrophonium chloride]
Human hepatocytes
  Structural based (HCI): -VE

## C#C[C@]1(OC(C)=O)CC[C@H]2[C@@H]3CCC4=C[C@@H](OC(C)=O)CC[C@@H]4[C@H]3CC[C@@]21C [ethynodiol diacetate]
Human hepatocytes; In vitro Assay, ref Xu 2008
  Structural based (HCI): -VE

## Nc1nc(=O)[nH]cc1F [flucytosine]
Human hepatocytes; In vitro Assay, ref Xu 2008
  Structural based (HCI): +VE

## COCCCC/C(=N\OCCN)c1ccc(C(F)(F)F)cc1 [fluvoxamine]
Human hepatocytes
  Structural based (HCI): -VE

## Nc1nc2ncc(CNc3ccc(C(=O)N[C@@H](CCC(=O)O)C(=O)O)cc3)nc2c(=O)[nH]1 [folate]
Human hepatocytes; In vitro Assay, ref Xu 2008
  Structural based (HCI): -VE

## CC[N+](CC)(CC)CCOc1cccc(OCC[N+](CC)(CC)CC)c1OCC[N+](CC)(CC)CC [gallamine triethiodide]
Human hepatocytes; ref Xu 2008
  Structural based (HCI), In vitro Assay: -VE

## NC[C@H]1O[C@H](O[C@H]2[C@H](O)[C@@H](O[C@H]3O[C@H](CO)[C@@H](O)[C@H](N)[C@H]3O)[C@H](N)C[C@@H]2N)[C@H](O)[C@@H](O)[C@@H]1O [kanamycin sulfate]
Human hepatocytes; In vitro Assay, ref Xu 2008
  Structural based (HCI): -VE

## N=C(N)NCCC[C@H](N)C(=O)O [l-arginine]
Human hepatocytes; In vitro Assay, ref Xu 2008
  Structural based (HCI): -VE

## C[C@H](CCC(=O)O)[C@H]1CC[C@H]2[C@@H]3CC[C@@H]4C[C@H](O)CC[C@]4(C)[C@H]3CC[C@]12C [lithocholic acid]
Human hepatocytes; ref Xu 2008
  Structural based (HCI), In vitro Assay: -VE

## CCn1cc(C(=O)O)c(=O)c2cc(F)c(N3CCNC(C)C3)c(F)c21 (centres unmarked) [lomefloxacin]
Human hepatocytes; In vitro Assay, ref Xu 2008
  Structural based (HCI): -VE

## O=C(O)/C=C\C(=O)O [maleic acid]
Human hepatocytes; In vitro Assay, ref Xu 2008
  Structural based (HCI): -VE

## COC(=O)Nc1nc2ccc(C(=O)c3ccccc3)cc2[nH]1 [mebendazole]
Human hepatocytes; In vitro Assay, ref Xu 2008
  Structural based (HCI): +VE

## COc1cccc(OC)c1C(=O)N[C@@H]1C(=O)N2[C@@H]1SC(C)(C)[C@@H]2C(=O)O [methicillin sodium]
Human hepatocytes; ref Xu 2008
  Structural based (HCI), In vitro Assay: -VE

## CC[C@@H](CO)NC(=O)[C@@H]1C=C2c3cccc4[nH]cc(c34)C[C@H]2N(C)C1 [methylergonovine maleate]
Human hepatocytes; ref Xu 2008
  Structural based (HCI), In vitro Assay: -VE

## Cc1nc2n(c(=O)c1CCN1CCC(c3noc4cc(F)ccc34)CC1)CCCC2O (centres unmarked) [paliperidone]
[2]
  Partition Hybrid HRM Score: -VE
  Ro2 Hybrid HRM Score: -VE
[3]
  DILI +VE (5-8), DILI -VE (-4): -VE
  DILI severity category: vNo-DILI-Concern
[1]; ref Aleo 2019
  In vivo DILI: -VE

## Cn1c(=O)c2[nH]c(Br)nc2n(C)c1=O [pamabrom]
[2]
  Partition Hybrid HRM Score: -VE
  Ro2 Hybrid HRM Score: -VE
[3]
  DILI +VE (5-8), DILI -VE (-4): -VE
  DILI severity category: vNo-DILI-Concern
[1]; ref Aleo 2019
  In vivo DILI: -VE

## NCCC(O)(P(=O)(O)O)P(=O)(O)O [pamidronate]
Human hepatocytes; In vitro Assay, ref Xu 2008
  Structural based (HCI): -VE

## NC[C@@H]1O[C@H](O[C@H]2[C@@H](O)[C@H](O[C@@H]3[C@@H](O)[C@H](N)C[C@H](N)[C@H]3O[C@H]3O[C@H](CO)[C@@H](O)[C@H](O)[C@H]3N)O[C@@H]2CO)[C@H](N)[C@@H](O)[C@@H]1O [paromomycin]
Human hepatocytes; ref Xu 2008
  Structural based (HCI), In vitro Assay: -VE

## CC1(C)S[C@@H]2[C@H](NC(=O)Cc3ccccc3)C(=O)N2[C@H]1C(=O)O [penicillin g]
Human hepatocytes; In vitro Assay, ref Xu 2008
  Structural based (HCI): -VE

## CCOc1ccc(NC(C)=O)cc1 [phenacetin]
Human hepatocytes; In vitro Assay, ref Xu 2008
  Structural based (HCI): +VE

## CC(C(=O)O)c1ccc(N2CC=CC2)c(Cl)c1 (centres unmarked) [pirprofen]
[2]
  Partition Hybrid HRM Score: +VE
  Ro2 Hybrid HRM Score: -VE
[3]
  DILI +VE (5-8), DILI -VE (-4): +VE
  DILI severity category: vMost-DILI-Concern
[1]; […]
  In vivo DILI: +VE
[1]; ref Aleo 2019
  In vivo DILI: +VE

## C[C@]12C=CC(=O)C=C1CC[C@@H]1[C@@H]2C(=O)C[C@@]2(C)[C@H]1CC[C@]2(O)C(=O)CO [prednisone]
Human hepatocytes; In vitro Assay, ref Xu 2008
  Structural based (HCI): -VE

## CNCCCC1c2ccccc2C=Cc2ccccc21 [protriptyline]
[4]
  Cellular toxicity (3T3 cells): -VE
  Combined Assay: +VE
  GSH adduct HML: -VE
  Hepatocyte cellular toxicity: -VE
  MitoTox 3T3: +VE
  TDI CYP3A4: -VE
  hBSEP inhibition: -VE
[2]
  Partition Hybrid HRM Score: -VE
  Ro2 Hybrid HRM Score: -VE
[3]
  DILI +VE (5-8), DILI -VE (-4): -VE
  DILI severity category: vNo-DILI-Concern
[1]; ref Aleo 2019
  In vivo DILI: -VE
[1]; ref Schadt 2015
  In vivo DILI: -VE

## CCOc1ccccc1OCCN[C@H](C)Cc1ccc(OC)c(S(N)(=O)=O)c1 [tamsulosin]
[4]
  Cellular toxicity (3T3 cells): -VE
  Combined Assay: -VE
  GSH adduct HML: -VE
  Hepatocyte cellular toxicity: -VE
  MitoTox 3T3: -VE
  TDI CYP3A4: -VE
  hBSEP inhibition: -VE
[2]
  Partition Hybrid HRM Score: -VE
  Ro2 Hybrid HRM Score: -VE
[3]
  DILI +VE (5-8), DILI -VE (-4): +VE
  DILI severity category: vLess-DILI-Concern
[1]; ref Aleo 2019
  In vivo DILI: +VE
[1]; ref Schadt 2015
  In vivo DILI: -VE

## Cc1nc(C)c2c(n1)N(Cc1ccc(-c3ccccc3-c3nnn[nH]3)cc1)C(=O)CC2 [tasosartan]
[4]
  Cellular toxicity (3T3 cells): -VE
  Combined Assay: +VE
  GSH adduct HML: -VE
  Hepatocyte cellular toxicity: +VE
  MitoTox 3T3: -VE
  TDI CYP3A4: -VE
  hBSEP inhibition: +VE
[2]
  Partition Hybrid HRM Score: +VE
  Ro2 Hybrid HRM Score: +VE

## CN1CCN(CC/C=C2/c3ccccc3Sc3ccc(S(=O)(=O)N(C)C)cc32)CC1 [thiothixene]
Human hepatocytes; In vitro Assay, ref Xu 2008
  Structural based (HCI): -VE

## OC(CCN1CCCCC1)(c1ccccc1)C1CCCCC1 (centres unmarked) [trihexyphenidyl]
[2]
  Partition Hybrid HRM Score: -VE
  Ro2 Hybrid HRM Score: -VE
[3]
  DILI +VE (5-8), DILI -VE (-4): -VE
  DILI severity category: vNo-DILI-Concern
[1]; ref Aleo 2019
  In vivo DILI: -VE

## Nc1ncnc2c1ncn2[C@@H]1O[C@H](CO)[C@@H](O)[C@@H]1O [vidarabine]
Human hepatocytes; In vitro Assay, ref Xu 2008
  Structural based (HCI): -VE
